{"source": "patent US11351134B2", "about": "“Small molecule agents, compositions, and formulations, for internal use, displaying inhibitory activity against gram-positive and/or gram-negative organisms” (NATUREZA, INC., priority 2017, dated 2022)", "format_in_all_cases": "cell-based", "key": {"[1]": {"system": "representative Gram-positive pathogens and yeast", "assay": "Broth microdilution of lecithin/chitosan compositions, sonicated and/or filtered", "details": "composition with lecithin and chitosan", "description": "In a further preparation, lauric acid derivative, 12-aminododecanoic acid or 12-amino-1-dodecanoic acid methyl ester, was suspended individually (and independently) in an organic solvent, chloroform, and mixed with water, generally under agitated conditions. Here, for each sample, the amount of water to the amount of chloroform was at least 2:1, and was as high as 10:1. This was followed by chloroform evaporation, generally under vacuum using a freeze dryer. After removal of the chloroform, a lecithin solution was added to each sample. The lecithin was in a solution of acetic acid (e.g., 98 mM acetic acid and 2 mM sodium acetate), in which the amount of lecithin in solution was between about 1% to 5%. With addition of lecithin, each sample mixture contained up to about 4.8% lecithin (or generally about 5% or less), and up to about 7.8% of one of the lauric acid derivatives (or generally about 8% or less). pH of the solution was neutral. It is noted that the lecithin should be in a suitable form (e.g., solution or granules) acceptable for internal utilization (e.g., pharmaceutical grade). The lecithin may also include cholesterol, or other lecithin variants as described above, with similar results. Chitosan was then added to each of the samples, and each sample was then independently sonicated, followed by independent sterilization by high pressure filtration. […]"}, "[2]": {"system": "Staphylococcus aureus (including MRSA strains)", "assay": "Broth microdilution (CLSI M07) of active component mixed with water only", "details": "active component mixed with water only (miscible state); about 0.0009 wt. % to about 8 wt. %", "method": "(§1) Initially, to determine basic characteristics, each active component was separately mixed, generally under agitated conditions, with water, and each was miscible with water. Each, after being mixed with water, was tested in a broth microdilution assay, against a variety of bacteria using amounts of the each of the lauric acid derivatives, ranging from about 0.0009 wt. % to about 8 wt. %. The bacteria included Escherichia coli, and Staphylococcus aureus (including MRSA strains). The minimum inhibitory concentration (MIC) needed to prevent growth of the target bacteria was evaluated based on a method published by Clinical Laboratory Standards Institute (CLSI), broth microdilution method M-07 (M07). […] Each of the samples containing one of the lauric acid derivatives was compared with a positive control, decanoic acid."}, "[3]": {"system": "Escherichia coli", "assay": "Broth microdilution (CLSI M07) of active component mixed with water only", "details": "active component mixed with water only (miscible state); about 0.0009 wt. % to about 8 wt. %", "method": "as §1"}, "[4]": {"system": "Gram-positive pathogens and Gram-negative pathogens", "assay": "In vitro inhibitory activity of chitosan- or carrier-containing particles", "details": "synthesis (with chitosan) at pH 7 with positively charged chitosan", "description": "For TABLES 1 to 3, compositions were generally prepared as described above, and as further outlined in this paragraph. For these examples, the active component, as a lauric acid derivative or lauric acid, was suspended in an organic solvent, chloroform, and then mixed with water, under robust agitation. The amount of water to the amount of chloroform was at least about 2:1, and could be as high as 10:1. Chloroform was then evaporated (e.g., under vacuum using a freeze dryer). After removal of the chloroform, a 2.2% lecithin solution in an acetate buffer (e.g., 98 mM acetic acid and 2 mM sodium acetate) was prepared and added, so the final amount of the active component was about 1 part active component mixture and about 9 parts of the 2.2% lecithin solution. Of course, it is noted that other ranges to achieve final amount of the active component as described above (e.g., active component mixture and lecithin solution) may also be utilized. Cholesterol could also be optionally added. The mixture of lecithin and the active component was mixed and sonicated, and then a solution of about 1.5% chitosan was added. Thereafter, the entirety of the mixture containing the lecithin and the active component was further blended, in which a final ratio was about 1 part active component to about 9 parts of the 2.2% lecithin solution to about 10 parts of the 1.5% chitosan solution. The pH was then varied, to a pH of 5, or a pH of 7, or a pH of 9. In some mixtures having a pH of 7, a chemical agent imparting a positive charge to the chitosan was included in a form of glycol chitosan. In these tests, the chemical agent used was glycol. In these examples, the amount of chemical agent, glycol was about one molecule glycol moiety to one molecule chitosan sacharide unit; higher amounts of glycol moieties are also acceptable, while lower amounts of glycol moieties were often found to decrease overall inhibitory activity associated with a composition when formed and tested in vitro. It is noted that negatively charged chitosan containing particles were prepared. […] After mixing, the mixtures could each be filtered through a […] filter. In some tests, the mixtures were sonicated before filtering. Sonication produced small particles. In some studies, particles were freeze dried as a powder (generally, after mixing, sonicating and filtering).\nThe positive controls were prepared and evaluated in a similar manner. All prepared samples were tested using a broth microdilution test.\nThis also occurs when the chitosan- or carrier-containing particle includes an active component that has a log P value that is less than 4 and includes a methyl and/or ethyl side chain (e.g., 12-amino-1-dodecanoic acid methyl ester). […]"}}}
{"smiles": "COC(=O)CCCCCCCCCCCN.Cl", "note": "[12-amino-1-dodecanoic acid methyl ester HCl]", "values": [{"measurement": "Growth inhibitory activity against representative Gram-positive pathogens and yeast", "setting": "[1]", "result": "exhibited growth inhibitory activity"}, {"measurement": "Inhibitory activity against Gram-positive bacteria (e.g., S. aureus)", "setting": "[2]", "result": "does not, in the miscible state, demonstrate inhibitory activity"}, {"measurement": "Inhibitory activity against Gram-negative bacteria (e.g., E. coli)", "setting": "[3]", "result": "does not, in the miscible state, demonstrate inhibitory activity"}, {"measurement": "Inhibitory activity against both Gram-positive pathogens and Gram-negative pathogens", "setting": "[4]", "result": "stronger inhibitory activity as well as broad spectrum activity"}]}
